Several values for one entry are separate records, joined by “and”; a condition that tells them apart may be missing. Equal values may be shown once.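 How tested: cells in 96-well plates exposed to compound for 48 hours at five concentrations. GI50 marks 50% less growth. The concentration for full growth arrest is given as TGI.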
How the values were obtained:
Test in all cases: NCI tumour cell line growth inhibition, 48 h
IGROV1 ovarian = system: IGROV1 ovarian
HCC-2998 colon = system: HCC-2998 colon
K-562 leukemia = system: K-562 leukemia
SNB-19 CNS = system: SNB-19 CNS
HT29 colon = system: HT29 colon
BT-549 breast = system: BT-549 breast
SK-MEL-2 melanoma = system: SK-MEL-2 melanoma
MDA-MB-231 breast = system: MDA-MB-231 breast
ACHN renal = system: ACHN renal
UO-31 renal = system: UO-31 renal
CAKI-1 renal = system: CAKI-1 renal
HOP-92 NSCLC = system: HOP-92 NSCLC
MCF7 breast = system: MCF7 breast
SNB-75 CNS = system: SNB-75 CNS
HL-60(TB) leukemia = system: HL-60(TB) leukemia
MDA-MB-435 = system: MDA-MB-435
RPMI-8226 leukemia = system: RPMI-8226 leukemia
OVCAR-3 ovarian = system: OVCAR-3 ovarian
DU-145 prostate = system: DU-145 prostate
MOLT-4 leukemia = system: MOLT-4 leukemia
SR leukemia = system: SR leukemia
UACC-62 melanoma = system: UACC-62 melanoma
SF-539 CNS = system: SF-539 CNS
LOX IMVI melanoma = system: LOX IMVI melanoma
COLO 205 colon = system: COLO 205 colon
SW-620 colon = system: SW-620 colon
A549 NSCLC = system: A549 NSCLC
SF-268 CNS = system: SF-268 CNS
HS 578T breast = system: HS 578T breast
U251 CNS = system: U251 CNS
CCRF-CEM leukemia = system: CCRF-CEM leukemia
SN12C renal = system: SN12C renal
RXF 393 renal = system: RXF 393 renal
SK-MEL-28 melanoma = system: SK-MEL-28 melanoma
NCI-H23 lung = system: NCI-H23 lung
NCI-H460 lung = system: NCI-H460 lung
OVCAR-5 ovarian = system: OVCAR-5 ovarian
HCT-116 colon = system: HCT-116 colon
A498 renal = system: A498 renal
HOP-62 NSCLC = system: HOP-62 NSCLC
786-0 renal = system: 786-0 renal
SK-MEL-5 melanoma = system: SK-MEL-5 melanoma
PC-3 prostate = system: PC-3 prostate
OVCAR-4 ovarian = system: OVCAR-4 ovarian
NCI/ADR-RES ovarian = system: NCI/ADR-RES ovarian
KM12 colon = system: KM12 colon
SK-OV-3 ovarian = system: SK-OV-3 ovarian
M14 melanoma = system: M14 melanoma
OVCAR-8 ovarian = system: OVCAR-8 ovarian
UACC-257 melanoma = system: UACC-257 melanoma
T-47D breast = system: T-47D breast
MALME-3M melanoma = system: MALME-3M melanoma
SF-295 CNS = system: SF-295 CNS
NCI-H522 lung = system: NCI-H522 lung
HCT-15 colon = system: HCT-15 colon
TK-10 renal = system: TK-10 renal

CCCCCc1c(C)[nH]c(/C=C2\N=C(c3ccc[nH]3)C=C2Oc2ccc(Cl)cc2)c1C was tested, and the GI50 (IGROV1 ovarian) was 204 nM and 129 nM, the TGI (IGROV1 ovarian) was 50.9 µM and the GI50 (HCC-2998 colon) was 43.9 nM and 24.1 nM. The TGI (HCC-2998 colon) was 2.67 µM and 7.35 µM, the GI50 (K-562 leukemia) was 48.5 nM and 36.7 nM and the TGI (K-562 leukemia) was greater than 100 µM. For the same molecule, the GI50 (SNB-19 CNS) was 268 nM and 173 nM, the TGI (SNB-19 CNS) was 4.33 µM and the GI50 (HT29 colon) was 40.2 nM and 28 nM. For the same molecule, the TGI (HT29 colon) was 18.3 µM, the GI50 (BT-549 breast) was 222 nM and 352 nM and the TGI (BT-549 breast) was 19.7 µM. The GI50 (SK-MEL-2 melanoma) was 57.8 nM and 29.3 nM, the TGI (SK-MEL-2 melanoma) was 230 nM and 108 nM and the GI50 (MDA-MB-231 breast) was 26.9 nM and < 10 nM. For the same molecule, the TGI (MDA-MB-231 breast) was 79.8 nM and 157 nM, the GI50 (ACHN renal) was 196 nM and 39.7 nM and the TGI (ACHN renal) was 1220 nM and 2110 nM. For the same molecule, the GI50 (UO-31 renal) was 142 nM and 59.9 nM, the TGI (UO-31 renal) was 320 nM and 222 nM and the GI50 (CAKI-1 renal) was 148 nM and 34.3 nM. For the same molecule, the TGI (CAKI-1 renal) was 542 nM and 312 nM, the GI50 (HOP-92 NSCLC) was 41.7 nM and 17.6 nM and the TGI (HOP-92 NSCLC) was 314 nM and 361 nM. For the same molecule, the GI50 (MCF7 breast) was 57.8 nM and 23.8 nM, the TGI (MCF7 breast) was 2150 nM and 3570 nM and the GI50 (SNB-75 CNS) was 112 nM and 37.5 nM. The TGI (SNB-75 CNS) was 553 nM and 431 nM, the GI50 (HL-60(TB) leukemia) was 213 nM and 63.7 nM and the TGI (HL-60(TB) leukemia) was 1480 nM and 1010 nM. For the same molecule, the GI50 (MDA-MB-435) was 58.7 nM and 35.2 nM, the TGI (MDA-MB-435) was 334 nM and 385 nM and the GI50 (RPMI-8226 leukemia) was 60.2 nM and 16.3 nM. The TGI (RPMI-8226 leukemia) was 1230 nM and 1570 nM, the GI50 (OVCAR-3 ovarian) was 107 nM and 34.2 nM and the TGI (OVCAR-3 ovarian) was 516 nM and 450 nM. The GI50 (DU-145 prostate) was 83.7 nM and 20.1 nM, the TGI (DU-145 prostate) was 3040 nM and 2910 nM and the GI50 (MOLT-4 leukemia) was 64 nM. For the same molecule, the TGI (MOLT-4 leukemia) was 1880 nM, the GI50 (SR leukemia) was 37.2 nM and < 10 nM and the TGI (SR leukemia) was greater than 100 µM. For the same molecule, the GI50 (UACC-62 melanoma) was 41.8 nM and 29.9 nM, the TGI (UACC-62 melanoma) was 163 nM and 88.4 nM and the GI50 (SF-539 CNS) was 125 nM and 40.6 nM. The TGI (SF-539 CNS) was 992 nM and 474 nM, the GI50 (LOX IMVI melanoma) was 20.4 nM and < 10 nM and the TGI (LOX IMVI melanoma) was 46 nM and 47.3 nM. The GI50 (COLO 205 colon) was 129 nM and 28.9 nM, the TGI (COLO 205 colon) was 1770 nM and 1180 nM and the GI50 (SW-620 colon) was 38.7 nM and 22.8 nM. The TGI (SW-620 colon) was 2580 nM and 1290 nM, the GI50 (A549 NSCLC) was 75.3 nM and 26.4 nM and the TGI (A549 NSCLC) was 382 nM and 229 nM. For the same molecule, the GI50 (SF-268 CNS) was 76.7 nM and 33.8 nM, the TGI (SF-268 CNS) was 3.18 µM and the GI50 (HS 578T breast) was 126 nM and 27.1 nM. The TGI (HS 578T breast) was 650 nM and 400 nM, the GI50 (U251 CNS) was 65.8 nM and 19 nM and the TGI (U251 CNS) was 749 nM and 192 nM. The GI50 (CCRF-CEM leukemia) was 39.2 nM and < 10 nM, the TGI (CCRF-CEM leukemia) was greater than 100 µM and the GI50 (SN12C renal) was 112 nM and 54.9 nM. For the same molecule, the TGI (SN12C renal) was 1920 nM, the GI50 (RXF 393 renal) was 67.8 nM and 123 nM and the TGI (RXF 393 renal) was 672 nM and 722 nM. For the same molecule, the GI50 (SK-MEL-28 melanoma) was 169 nM and 74.2 nM, the TGI (SK-MEL-28 melanoma) was 1530 nM and 943 nM and the GI50 (NCI-H23 lung) was 160 nM and 73.9 nM. The TGI (NCI-H23 lung) was 3250 nM and 2620 nM, the GI50 (NCI-H460 lung) was 54.5 nM and 24 nM and the TGI (NCI-H460 lung) was 12 µM. The GI50 (OVCAR-5 ovarian) was 142 nM and 38.3 nM, the TGI (OVCAR-5 ovarian) was 4.26 µM and the GI50 (HCT-116 colon) was 39.2 nM and 14.7 nM. For the same molecule, the TGI (HCT-116 colon) was 1220 nM and 1180 nM, the GI50 (A498 renal) was 134 nM and 33 nM and the TGI (A498 renal) was 3330 nM and 609 nM. For the same molecule, the GI50 (HOP-62 NSCLC) was 148 nM and 187 nM, the TGI (HOP-62 NSCLC) was 14.6 µM and the GI50 (786-0 renal) was 76.3 nM and 46.1 nM. For the same molecule, the TGI (786-0 renal) was 326 nM and 512 nM, the GI50 (SK-MEL-5 melanoma) was 27 nM and 23.4 nM and the TGI (SK-MEL-5 melanoma) was 76.2 nM and 81.8 nM. For the same molecule, the GI50 (PC-3 prostate) was 115 nM and 23.6 nM, the TGI (PC-3 prostate) was 7.22 µM and the GI50 (OVCAR-4 ovarian) was 52.7 nM and 22.8 nM. The TGI (OVCAR-4 ovarian) was greater than 100 µM, the GI50 (NCI/ADR-RES ovarian) was 377 nM and 387 nM and the TGI (NCI/ADR-RES ovarian) was 18.8 µM. For the same molecule, the GI50 (KM12 colon) was 40 nM and 13.3 nM, the TGI (KM12 colon) was 1500 nM and 614 nM and the GI50 (SK-OV-3 ovarian) was 308 nM and 277 nM. The TGI (SK-OV-3 ovarian) was 17.6 µM, the GI50 (M14 melanoma) was 78.9 nM and 20.3 nM and the GI50 (OVCAR-8 ovarian) was 160 nM and 29.6 nM. The TGI (OVCAR-8 ovarian) was 1980 nM, the GI50 (UACC-257 melanoma) was 280 nM and 70.6 nM and the TGI (UACC-257 melanoma) was 3000 nM and 2780 nM. The GI50 (T-47D breast) was 70.9 nM and 32.9 nM, the TGI (T-47D breast) was 2.06 µM and 6.01 µM and the GI50 (MALME-3M melanoma) was 337 nM and 129 nM. For the same molecule, the TGI (MALME-3M melanoma) was 1600 nM and 1540 nM, the GI50 (SF-295 CNS) was 170 nM and 83.2 nM and the TGI (SF-295 CNS) was 570 nM and 1100 nM. The GI50 (NCI-H522 lung) was 45.5 nM and 30.5 nM, the TGI (NCI-H522 lung) was 1020 nM and 1280 nM and the GI50 (HCT-15 colon) was 77.9 nM and 28.7 nM. For the same molecule, the TGI (HCT-15 colon) was 1460 nM and 1050 nM, the GI50 (TK-10 renal) was 413 nM and 53.9 nM and the TGI (TK-10 renal) was 5.45 µM and 0.921 µM.

From PubChem BioAssay (NCI)
